Our source for the GI50 and TGI values is PubChem BioAssay (NCI).

Each structure is given as a SMILES string. Where “and” joins values, the source holds several entries; their conditions need not be identical. Equal values may be shown once.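 48-hour exposure; five concentrations; linearly interpolated endpoints. GI50 = concentration required for 50% inhibition of growth. TGI marks complete inhibition of growth.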 Bounds are passed on as bounds.

The first experiment deals with OVCAR-8 ovarian. Kind of experiment: NCI-60 cell line screen, 48 h.
For the compound `COc1cc(-c2csc(NC(=O)c3cc(C(F)(F)F)cc(C(F)(F)F)c3)n2)cc(OC)c1OC`, the GI50 is 2.77 µM and the TGI is greater than 100 µM.
The compound `CC(C)=CCC12Cc3ccc(O)cc3C(C(C)CN1)C2C` (stereo not given) had a TGI greater than 100 µM.
Same read-out and setting: with `CC[N+]1(C)CCC(O)(c2ccc(C)cc2)C(C(=O)c2ccc(C)cc2)C1` (stereo not given) the figure was greater than 100 µM.
For the compound `CC(=O)c1cccc(N(/C=C/C(=O)C(F)(F)F)CC(=O)c2ccc(Cl)cc2)c1`, the GI50 was greater than 100 µM and the TGI is greater than 100 µM.
With `COc1ccc(Cl)cc1Nc1nc(C(F)(F)F)ccc1C(=O)NN`, the GI50 was 3.43 µM and the TGI is greater than 100 µM.
The compound `CC(C)c1ccc2nc3ccc(C(=O)NCCN(C)C)cn3c(=O)c2c1` showed a TGI of 39.9 µM.
Turning to `C#C[C@]1(O)CC[C@H]2[C@@H]3CC=C4c5nc(Nc6ccccn6)sc5CC[C@]4(C)[C@H]3CC[C@@]21C`, the GI50 is 1.77 µM and the TGI is 7.89 µM.
The corresponding values for `CSc1ccc(C2=Nn3c(nnc3-c3ccc(F)c(Cl)c3)SC2)cc1` are 22.2 µM and greater than 100 µM.
On the same counts, the results for `CNC(=O)Nc1ccc(-c2nc(N3CCOCC3)nc3c2cnn3C2CCOCC2)cc1` are 0.247 µM and 6.47 µM.
`O=c1oc2ccccc2c(O)c1C=NC(=S)c1ccncc1` displayed a TGI greater than 100 µM.
Same read-out and setting: with `NCCCCNCCCNC(=O)CNC(=O)CC(O)C(N)CCCC(NC(=O)C(CN)NC(=O)C(O)CNC(=O)CC(N)c1ccc(O)cc1)C(=O)O` (stereo not given) the figure was greater than 10 µM.
Regarding `N/C(=N\OC(=O)c1ccccc1)C(C(=O)NOC(=O)c1ccccc1)C1CCCCC1` (stereo not given), the GI50 was 3.38 µM and the TGI was 14.8 µM.
Turning to `CCOc1ccc(N=Nc2ccc3cc(/C(C)=N/NC(=O)/C(C#N)=C\c4ccc(N(CCC#N)CCC#N)cc4)c(=O)oc3c2)cc1`, the TGI is greater than 10 µM.
For `O=C(O)c1cc[c]([Hg][S]c2ncnc3nc[nH]c23)cc1`, the GI50 was 4.44 µM and the TGI worked out at 25.3 µM.
Take `CC(C)(C)OC(=O)NCC(C#N)CNC(=O)OC(C)(C)C`: the TGI was greater than 100 µM.
`Cc1ccc(C(=O)Cc2nc3c([nH]c2=O)c(C)nn3-c2ccccc2)c(C)c1` came in with a TGI greater than 10 µM.
Consider `Cn1cc(C2=C(c3cn(C)c4ccc(N)cc34)C(=O)NC2=O)c2ccccc21`, for which the GI50 is 17 µM and the TGI was greater than 25 µM.
For `CCCCN1C(=O)CC2[C@@H]3CCc4cc(OC)ccc4C3CC[C@]2(C)C1=O` (stereo not given in full), the TGI was greater than 10 µM.
Consider `COc1cc(Nc2ccnc(N3CCN(c4ccnc5cc(Cl)ccc45)CC3)n2)cc(OC)c1`, for which the GI50 is 1.97 µM and the TGI is greater than 23 µM.
The compound `O=C(CC(C(=O)c1cccs1)c1ccc2c(c1)OCO2)c1ccc(Br)cc1` (stereo not given) gave a TGI greater than 100 µM.
Turning to `C/C(=N\O)c1ccc(Nc2cc(-n3nnc4ccccc43)nc3ccccc23)cc1`, the GI50 is 5.65 µM and the TGI is 18.3 µM.
On the same counts, the results for `C[C@]12CC[C@@H]3c4ccc(O)c([N+](=O)[O-])c4CC[C@H]3[C@@H]1CC[C@@H]2NS(=O)(=O)c1ccc(C(F)(F)F)cc1` are 2.46 µM and 8.3 µM.
The corresponding values for `CC[C@H](C)[C@H](NC(=O)c1cnccn1)C(=O)N(C)[C@H](C[C@@H](OC(C)=O)c1nc(C(=O)N[C@@H](Cc2ccccc2)C[C@H](C)C(=O)OC)cs1)C(C)C` are 1.68 µM and greater than 33.3 µM.
`Cc1c(C)c2cc3c(=O)ccoc3c(C)c2oc1=O` displayed a TGI greater than 100 µM.
Still for that read-out and setting: with `N#Cc1ccc(-c2nc(C#N)c(N)o2)cc1` the figure was greater than 10 µM.

A further experiment has as its system HOP-92 NSCLC. The experiment in a line: NCI-60 cell line screen, 48 h.
Regarding `COc1cc(-c2csc(NC(=O)c3cc(C(F)(F)F)cc(C(F)(F)F)c3)n2)cc(OC)c1OC`, the GI50 is 0.848 µM and the TGI amounted to 4.11 µM.
`CC(C)=CCC12Cc3ccc(O)cc3C(C(C)CN1)C2C` (stereo not given) showed a TGI greater than 100 µM.
As for `CC[N+]1(C)CCC(O)(c2ccc(C)cc2)C(C(=O)c2ccc(C)cc2)C1` (stereo not given), the TGI stood at 46.2 µM.
For the compound `CC(=O)c1cccc(N(/C=C/C(=O)C(F)(F)F)CC(=O)c2ccc(Cl)cc2)c1`, the GI50 is greater than 100 µM and the TGI was greater than 100 µM.
For `COc1ccc(Cl)cc1Nc1nc(C(F)(F)F)ccc1C(=O)NN`, the GI50 is 2.56 µM and the TGI came to 40.1 µM.
The corresponding values for `C#C[C@]1(O)CC[C@H]2[C@@H]3CC=C4c5nc(Nc6ccccn6)sc5CC[C@]4(C)[C@H]3CC[C@@]21C` are 1.8 µM and 4.43 µM.
Regarding `CSc1ccc(C2=Nn3c(nnc3-c3ccc(F)c(Cl)c3)SC2)cc1`, the GI50 was 4 µM and the TGI worked out at 14.8 µM.
On the same counts, the results for `CNC(=O)Nc1ccc(-c2nc(N3CCOCC3)nc3c2cnn3C2CCOCC2)cc1` are 0.0371 µM and 0.526 µM.
Compound `O=c1oc2ccccc2c(O)c1C=NC(=S)c1ccncc1` gave a TGI greater than 100 µM.
Still for that read-out and setting: with `NCCCCNCCCNC(=O)CNC(=O)CC(O)C(N)CCCC(NC(=O)C(CN)NC(=O)C(O)CNC(=O)CC(N)c1ccc(O)cc1)C(=O)O` (stereo not given) the figure was greater than 10 µM.
As for `N/C(=N\OC(=O)c1ccccc1)C(C(=O)NOC(=O)c1ccccc1)C1CCCCC1` (stereo not given), the GI50 is 2.39 µM and the TGI stood at 7.72 µM.
In turn, `CCOc1ccc(N=Nc2ccc3cc(/C(C)=N/NC(=O)/C(C#N)=C\c4ccc(N(CCC#N)CCC#N)cc4)c(=O)oc3c2)cc1` returned a TGI greater than 10 µM.
Regarding `O=C(O)c1cc[c]([Hg][S]c2ncnc3nc[nH]c23)cc1`, the GI50 was 2.21 µM and the TGI was determined as 23 µM.
`CC(C)(C)OC(=O)NCC(C#N)CNC(=O)OC(C)(C)C` yielded a TGI greater than 100 µM.
Turning to `CN1CCCN(CCNc2nccc(-c3c(-c4cccc(O)c4)nc4sccn34)n2)S1(=O)=O`, the GI50 was 12.1 µM and 16 µM; the TGI was 51.6 µM and 77.5 µM.
Consider `CC(O)CNC1=CC(=O)C(=O)c2ccccc21` (stereo not given), for which the TGI turned out to be 53.3 µM.
On the same count and under the same terms, with `CC1=C(C(=O)NC2CCCCC2)CC(C(=O)NC2CCCCC2)=C(C)N1` the figure was greater than 100 µM.
Same read-out and setting: with `Cc1ccc(C(=O)Cc2nc3c([nH]c2=O)c(C)nn3-c2ccccc2)c(C)c1` the figure was greater than 10 µM.
